Laboratory results reported in patent publication US20250154112A1, “A PREPARATION OF QUINAZOLINEDIONES AND USE THEREOF” (COUNCIL OF SCIENTIFIC AND INDUSTRIAL RESEARCH AN INDIAN …, priority 2021, published 2025).
Converted amounts (≈) assume the structure as drawn.

Columns and labels:
[1] = Determination of EC50 (in-vitro)
ATGL [2] = assay: Fold change in ATGL by densitometric analysis; format: cell-based; details: fold change of ATGL with respect to control, normalized with actin
Procedure: Densitimetric analysis was performed by image J to calculate the fold change of ATGL with respect to control. The values were normalized with actin.

ATGL [3] = assay: Western blot of ATGL level in HepG2 cells after compound treatment; format: cell-based; details: 24 hours; for ATGL level (Western Blot): 50 nM to 5 μM dose dependent, with respect to control; for induction of ATGL (Western Blot): 5 μM
Procedure: (§1) HepG2 cells were treated with the compounds 5, 8, 11, 59, 62, 91, 94 (50 nM, 100 nM, 200 nM, 500 nM, 1 μM and 5 μM for dose dependent assays) for 24 hours. After removing media from the cells, the wells were washed with 1×PBS twice to remove any remnant media. Cells were then lysed in lysis buffer containing 50 mM Tris-HCl (pH 7.4), 100 mM NaCl, 1 mM EDTA, 1 mM EGTA, 1% Triton X-100 and protease inhibitor cocktail (Millipore, Billierica, MA, USA). Following centrifugation at 20,000 g for 20 minutes, the protein solution was extracted from the cells. Protein was estimated using Bradford assay. Bradford's reagent (BioRad) was diluted in 1:4 ratio in double distilled water. 2 μl of protein sample was added to 100 μl of the reagent and absorbance was measured at 595 nm. 30 μg of protein was diluted in lysis buffer. 1X loading buffer diluted from 5X stock containing 250 mM Tris-HCl (pH 6.8), 10% SDS, 50% glycerol, 0.1% bromophenol Blue and 10% β-mercaptoethanol was added. The protein samples were then heated at 95° C. for 10 minutes, cooled and centrifuged at 12,000 g for 2 minutes prior to loading.
(§2) For western blotting, the proteins were resolved in 10% SDS PAGE (discontinuous buffer system). 1X running buffer containing SDS, Tris Base and Glycine was used to run the gel at 80V for approximately 2 hours. Transfer was done using PVDF membrane (Millipore) having pore size of 0.45 μm. 1X transfer buffer containing Tris-Base, Glycine and 20% methanol was used for wet transfer. Transfer was done at 90V for 3 hours. Following transfer, the PVDF membrane containing the proteins were washed in 1×PBST comprising of 1×PBS and 1% Tween 20 (Sigma Aldrich). The membrane was then incubated for 1 hour at room temperature in 5% skim milk powder to block the non-specific sites. Following multiple washes with 1×PBST to wash away any remaining blocking buffer, the required primary antibody (COP1 [BethylLaboraties], ATGL [Cell Signalling Technology] or Actin[Cell Signalling Technology]) prepared with 1×PBST, 1% Bovine Serum Albumin and 0.04% Sodium Azide was added to the membrane and incubated overnight at 4° C. The next day, the membrane was again washed multiple times with 1×PBST to remove any unbound primary antibody. The membrane was then incubated with goat anti-rabbit secondary antibody (Genei) for 1 hour at room temperature and washed again for multiple times with 1×PBST. The membrane was then developed using Clarity™ ECL Western Blotting Substrate (BioRad) and viewed in ChemiDoc (BioRad).
as §1, with “62, 65,” for “62,”, “at” for “(50 nM, 100 nM, 200 nM, 500 nM, 1 μM and”, “μM” for “μM for dose dependent assays)”, “cocktail 1” for “cocktail”

COP1 = molecular target: T1, COP1 (Homo sapiens, UniProt Q8NHY2); assay: Western blot of COP1 level in HepG2 cells after compound treatment; format: cell-based; details: 5 μM, 24 hours
T1 construct: endogenous in cells; host or cells: HepG2
Procedure: as §1, with “62, 65,” for “62,”, “at” for “(50 nM, 100 nM, 200 nM, 500 nM, 1 μM and”, “μM” for “μM for dose dependent assays)”, “cocktail 1” for “cocktail”
as §2

[4] = Lipophilicity assay (octanol/buffer Log D); format: physicochemical; details: pH 7.4, n-octanol/sodium phosphate buffer
Procedure: 1.56 g NaH2PO4·2H2O was dissolved in 0.5 L water in a 1 L beaker. After adjusting pH to 7.4 using NaOH solution, the volume was made up to 1 L. Equal volumes of sodium phosphate buffer (10 mM, pH 7.4) and n-octanol were added to a separation funnel and mixed thoroughly by shaking and inverting the funnel several times. The two layers were allowed to separate for overnight and then dispensed in two separate glass bottles. 10 mM stock solution was prepared in 100% DMSO and stored at 4° C. 495 μL of organic phase (1-octanol) was added to each well of a 2 mL deep well plate, followed by 495 μL of buffer and 10 μL of test substance was added. The plate was incubated for 3 hrs at room temperature on a plate shaker at 500 rpm. After incubation, the samples were allowed to equilibrate for 20 min and then centrifuged at 4000 rpm for 30 min for complete phase separation and analysed by LC-UV. Log D=Log (area of octanol/area of buffer)

Plasma stability assay = format: in vitro ADME; details: 1 μM, 37° C.
Procedure: 1 mM Stock of test compound was prepared from 10 mM initial stock solution of compounds by diluting 10 μL of 10 mM stock with 90 μL of DMSO. Then 10 μL of 1 mM stock was diluted with 90 μL of DMSO to give 100 μM concentration. The frozen plasma was thawed at room temperature and centrifuged at 1400 rpm at 4° C., for 15 minutes. Approximately 90% of the clear supernatant fraction was transferred to a separate tube and was used for the assay. Final working stock of 1 μM was prepared by diluting 3 μL of 100 μM with 297 μL of plasma. Plasma containing the test compound was incubated for 120 min at 37° C. in shaker with 500 rpm. 50 μL of aliquot of sample at 0, 15, 30, 60 and 120 minutes were precipitated with 150 μL of acetonitrile containing internal standard and centrifuged at 4000 rpm at 4° C. for 20 minutes. 120 μL of supernatant was diluted with 120 μL of water and analysed by LC-MS/MS.

Kinetic solubility = format: physicochemical; details: pH 7.4 phosphate buffer (PBS), aqueous buffer, kinetic from dmso stock, room temperature, 1.0% DMSO
Procedure: PBS sachet was dissolved in 0.9 L of Milli Q water and pH was adjusted to 7.4. Final volume was made up to 1 L with the water and stored at ambient temperature 21-25° C. […] 4 μL from the 50 mM stock solution were added to deep well plate containing 396 μL of pH 7.4 phosphate buffer, mixed and incubated for 24 hours at room temperature with constant mixing at 300 rpm. The plate was sealed well during the incubation process. After incubation, the samples were centrifuged for 20 min at 4000 rpm. The supernatant was analysed by HPLC-UV. The DMSO content in the sample was 1.0%. The final concentration of the compound in deep well plate was 500 μM.

[5] = Metabolic stability using human liver microsomes (HLM); format: in vitro ADME
Procedure: 1 mM stock solution of test compound was prepared in DMSO and diluted with Acetonitrile:Water (1:1) to get a 100 μM working concentration. 100 mL of Milli Q water was added to K2HPO4 (1.398 g) and KH2PO4 (0.27 g) to get final pH 7.4 solution of potassium phosphate buffer. […] The above mixture was pre incubated for 15 minutes at 37° C. After pre incubation, 32.5 μL of the mixture was added to 17.5 μL of buffer, this was incubated for 60 minutes at 37° C. [60 min Without Cofactor (NADPH)]. 16.25 μL of the pre incubated mixture and 8.75 μL of cofactor was added to 150 μL of acetonitrile containing internal standard [0 min Sample]. 62 μL of cofactor was added to remaining pre incubation mixture [Incubation mixture]. 25 μL of incubation mixture at 0, 5, 15, 30, 60 min and 60 min without cofactor were precipitated with 150 μL of acetonitrile containing internal standard, vortexed and centrifuged at 4000 rpm at 4° C. for 20 minutes. 120 μL of supernatant was diluted with 120 μL of water and analyzed by LC-MS/MS [sample preparation].

T1 sequence (Q8NHY2 whole entry): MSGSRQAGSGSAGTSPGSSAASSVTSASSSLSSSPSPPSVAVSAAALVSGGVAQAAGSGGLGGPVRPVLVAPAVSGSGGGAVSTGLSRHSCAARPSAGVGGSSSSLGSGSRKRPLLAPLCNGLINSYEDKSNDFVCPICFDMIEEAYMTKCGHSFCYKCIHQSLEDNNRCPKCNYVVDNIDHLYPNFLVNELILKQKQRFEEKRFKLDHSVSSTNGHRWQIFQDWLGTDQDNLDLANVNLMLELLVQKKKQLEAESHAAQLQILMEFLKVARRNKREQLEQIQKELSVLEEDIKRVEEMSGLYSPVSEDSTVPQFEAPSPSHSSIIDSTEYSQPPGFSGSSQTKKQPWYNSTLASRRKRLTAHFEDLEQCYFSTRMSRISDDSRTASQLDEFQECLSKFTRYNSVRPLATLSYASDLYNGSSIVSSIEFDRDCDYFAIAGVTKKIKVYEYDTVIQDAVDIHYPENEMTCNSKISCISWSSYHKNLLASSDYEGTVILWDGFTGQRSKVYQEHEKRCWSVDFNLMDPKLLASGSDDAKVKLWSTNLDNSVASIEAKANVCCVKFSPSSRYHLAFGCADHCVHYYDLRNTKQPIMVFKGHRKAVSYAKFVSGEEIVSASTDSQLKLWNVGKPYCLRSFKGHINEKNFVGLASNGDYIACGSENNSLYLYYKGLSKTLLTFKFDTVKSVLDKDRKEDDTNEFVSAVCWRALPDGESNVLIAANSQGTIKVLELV

EC50 [1] [nM] | stabilization of COP1 (Western Blot) (COP1) | LogD @ pH 7.4 [4] | Mean % remaining at 2 hrs in human Plasma (Plasma stability assay) [%] | solubility kinetic at 24 hours (Kinetic solubility) [µg/mL] | % QH (Well stirred model) [5] [%] | logD [4] | Structure (SMILES) | Fold change (ATGL [2]) | ATGL level (Western Blot) (ATGL [3]) | induction of ATGL (Western Blot) (ATGL [3])
209 | stabilize the COP1 | 2.58 | 32.80 | 124 (≈ 252 µM) | 17.46 |  | COCCn1c(=O)c2cc(NC(=O)Nc3cccc(C(C)=O)c3)ccc2n(CCN2CCCC2)c1=O [Compound 59, 1-(3-acetylphenyl)-3-(3-(2-methoxyethyl)-2,4-dioxo-1-(2-(pyrrolidin-1-yl)ethyl)-1,2,3,4-tetrahydroquinazolin-6-yl)urea] | 1.18 | increased ATGL level | ability to induce ATGL
50 | stabilize the COP1 |  | 48.20 | 20.8 (≈ 40.8 µM) | 62.0 | 2.08 | COCCn1c(=O)c2cc(NC(=O)Nc3cccc(C(C)=O)c3)ccc2n(CCN2CCOCC2)c1=O [Compound 65, 1-(3-acetylphenyl)-3-(3-(2-methoxyethyl)-1-(2-morpholinoethyl)-2,4-dioxo-1,2,3,4-tetrahydroquinazolin-6-yl)urea] | 1.44 |  | ability to induce ATGL
 | stabilize the COP1 |  |  |  |  |  | COCCn1c(=O)c2cc(NC(=O)Nc3cccc(C(C)=O)c3)ccc2n(CCCN2CCCCC2)c1=O [Compound 91, 1-(3-acetylphenyl)-3-(3-(2-methoxyethyl)-2,4-dioxo-1-(3-(piperidin-1-yl)propyl)-1,2,3,4-tetrahydroquinazolin-6-yl)urea] | 1.17 | increased ATGL level | ability to induce ATGL

The remaining lines, values behind:

Structure (SMILES) | EC50 [1] [nM] | stabilization of COP1 (Western Blot) (COP1) | LogD @ pH 7.4 [4] | Mean % remaining at 2 hrs in human Plasma (Plasma stability assay) [%] | solubility kinetic at 24 hours (Kinetic solubility) [µg/mL] | % QH (Well stirred model) [5] [%] | logD [4] | Fold change (ATGL [2]) | ATGL level (Western Blot) (ATGL [3]) | induction of ATGL (Western Blot) (ATGL [3])
COCCn1c(=O)c2cc(NC(=O)Nc3cccc(C(C)=O)c3)ccc2n(C)c1=O [Compound 8, 1-(3-acetylphenyl)-3-(3-(2-methoxyethyl)-1-methyl-2,4-dioxo-1,2,3,4-tetrahydroquinazolin-6-yl)urea] | 17.8 | stabilize the COP1 |  |  |  |  |  | 1.34 | increased ATGL level | ability to induce ATGL
COCCn1c(=O)c2cc(NC(=O)Nc3cccc(C(C)=O)c3)ccc2n(C(C)C)c1=O [Compound 11, 1-(3-acetylphenyl)-3-(1-isopropyl-3-(2-methoxyethyl)-2,4-dioxo-1,2,3,4-tetrahydroquinazolin-6-yl)urea] | 100 | stabilize the COP1 | 2.67 | 80.80 | 2.8 (≈ 6.39 µM) | 40.30 |  | 1.25 | increased ATGL level | ability to induce ATGL
COCCc1ccc(OCC(O)CNC(C)C)cc1 (stereo not shown) [Metroprolol, reference compound] |  |  | −0.04 |  |  |  |  |  |  | 
CC(C)[N+](C)(CCOC(=O)C1c2ccccc2Oc2ccccc21)C(C)C [Propantheline, reference compound] |  |  |  | 1.70 |  |  |  |  |  | 
